Assay results as given in patent US20010056085A1, “Methods of using vesicant drug formulations” (priority 1996, published 2001).
Read-outs that look alike come from different tables or passages of the source.

Assay: Half-life of ADR destruction by UVA light in the presence of test compounds (decrease in absorbance at 480 nm)
Format: physicochemical
Details: for Half-Life of ADR Destruction, 100 μM Test Compound: 100 μM test compound alone
[1] = UVA light, 100 μM test compound with 0.5 μM riboflavin

Structure (SMILES): COc1ccc(C(=O)c2cccc(C(=O)O)c2)cc1OC [3′,4′-Dimethoxy-3-benzophenonecarboxylic acid]
- Half-Life of ADR Destruction, 100 μM Test Compound (UVA light): 50.2 min
- Half-Life of ADR Destruction, 100 μM Test Compound and 0.5 μM Riboflavin [1]: 43.0 min

Structure (SMILES): O=C(O)Cc1ccc(O)cc1 [4-Hydroxy Phenylacetic Acid]
- Half-Life of ADR Destruction, 100 μM Test Compound and 0.5 μM Riboflavin [1]: 75.3 min

Structure (SMILES): CCc1cccc2c3c([nH]c12)C(CC)(CC(=O)O)OCC3 (centres unmarked) [Etodolac, reference compound]
- Half-Life of ADR Destruction, 100 μM Test Compound (UVA light): 33.5 min
- Half-Life of ADR Destruction, 100 μM Test Compound and 0.5 μM Riboflavin [1]: 6.41 min

Structure (SMILES): CC(=O)c1ccc2ccccc2c1 [2-Acetonaphthone]
- Half-Life of ADR Destruction, 100 μM Test Compound (UVA light): 8.36 min
- Half-Life of ADR Destruction, 100 μM Test Compound and 0.5 μM Riboflavin [1]: 7.92 min

Structure (SMILES): Nc1cccc(CC(=O)O)c1 [3-Amino Phenylacetic acid]
- Half-Life of ADR Destruction, 100 μM Test Compound and 0.5 μM Riboflavin [1]: 13.7 min

Structure (SMILES): O=C(c1ccco1)c1cccs1 [2-Furyl-2-thienyl ketone]
- Half-Life of ADR Destruction, 100 μM Test Compound (UVA light): 7.00 min

Structure (SMILES): Nc1ccc2ccccc2c1 [2-Aminonaplithalene]
- Half-Life of ADR Destruction, 100 μM Test Compound and 0.5 μM Riboflavin: 20.1 min

Structure (SMILES): O=C1COc2ccccc21 [3-Coumaranone]
- Half-Life of ADR Destruction, 100 μM Test Compound (UVA light): 11.2 min
- Half-Life of ADR Destruction, 100 μM Test Compound and 0.5 μM Riboflavin [1]: 11.2 min

Structure (SMILES): Cc1c(N)cccc1C(=O)O [3-Amino-2-Methyl Benzoic Acid]
- Half-Life of ADR Destruction, 100 μM Test Compound and 0.5 μM Riboflavin [1]: 23.2 min

Structure (SMILES): Nc1ccc(C[C@H](N)C(=O)O)cc1 [4-Amino Phenylalanine]
- Half-Life of ADR Destruction, 100 μM Test Compound (UVA light): 55.2 ± 7.1 min
- Half-Life of ADR Destruction, 100 μM Test Compound and 0.5 μM Riboflavin [1]: 7.65 ± 5.46 min

Structure (SMILES): Nc1cccc(CO)c1 [3-Amino Benzyl Alcohol]
- Half-Life of ADR Destruction, 100 μM Test Compound and 0.5 μM Riboflavin [1]: 7.34 min

Structure (SMILES): Cc1[nH]c2ccccc2c1C [2,3-Dimethyl Indole]
- Half-Life of ADR Destruction, 100 μM Test Compound and 0.5 μM Riboflavin [1]: 20.1 min

Structure (SMILES): O=Cc1ccc2ccccc2c1 [2-Naphthaldehyde]
- Half-Life of ADR Destruction, 100 μM Test Compound (UVA light): 6.14 min
- Half-Life of ADR Destruction, 100 μM Test Compound and 0.5 μM Riboflavin [1]: 5.68 min

Structure (SMILES): COc1ccc(CCCO)cc1OC [3-(3,4-Dimethoxyphenyl)-1-Propanol]
- Half-Life of ADR Destruction, 100 μM Test Compound (UVA light): 43.0 min
- Half-Life of ADR Destruction, 100 μM Test Compound and 0.5 μM Riboflavin [1]: 4.78 min

Structure (SMILES): COc1ccc(C(=O)CCC(=O)O)c2ccccc12 [Menbutone, 4-Methoxy-γ-oxo-1-naphthalenebutyric acid, reference compound]
- Half-Life of ADR Destruction, 100 μM Test Compound (UVA light): 2.21 min
- Half-Life of ADR Destruction, 100 μM Test Compound and 0.5 μM Riboflavin [1]: 1.37 min

Structure (SMILES): O=C(O)c1cccc2c1-c1ccccc1C2 [4-Fluorene Carboxylic acid]
- Half-Life of ADR Destruction, 100 μM Test Compound (UVA light): 30.1 min
- Half-Life of ADR Destruction, 100 μM Test Compound and 0.5 μM Riboflavin [1]: 18.8 min

Structure (SMILES): OCCc1ccccc1 [Phenylethyl Alcohol]
- Half-Life of ADR Destruction, 100 μM Test Compound (UVA light): 43.0 min

Structure (SMILES): NC(=O)NC(=O)c1ccccc1 [Benzoylurea]
- Half-Life of ADR Destruction, 100 μM Test Compound (UVA light): 43.0 min

Structure (SMILES): O=S(=O)(O)c1ccc2ccccc2c1 [2-Naphthalenesulfonic acid]
- Half-Life of ADR Destruction, 100 μM Test Compound (UVA light): 42.0 min

Structure (SMILES): Cn1c(=O)c2[nH]c(=O)[nH]c2n(C)c1=O [1,3-Dimethyl Uric acid]
- Half-Life of ADR Destruction, 100 μM Test Compound (UVA light): 75.3 min
- Half-Life of ADR Destruction, 100 μM Test Compound and 0.5 μM Riboflavin [1]: 21.5 min

Structure (SMILES): Nc1ccc(Oc2ccccc2)cc1 [4-Phenoxyaniline]
- Half-Life of ADR Destruction, 100 μM Test Compound (UVA light): 75.3 min
- Half-Life of ADR Destruction, 100 μM Test Compound and 0.5 μM Riboflavin [1]: 15.1 min

Structure (SMILES): Cn1c(=O)[nH]c2[nH]c(=O)[nH]c2c1=O [1-Methyl Uric acid]
- Half-Life of ADR Destruction, 100 μM Test Compound and 0.5 μM Riboflavin [1]: 33.4 min

Structure (SMILES): O=C(O)CCCc1ccccc1 [4-Phenyl Butyric Acid]
- Half-Life of ADR Destruction, 100 μM Test Compound (UVA light): 43.0 min
- Half-Life of ADR Destruction, 100 μM Test Compound and 0.5 μM Riboflavin [1]: 33.5 min

Structure (SMILES): Cc1cccc(N)c1 [3-Methyl Aniline]
- Half-Life of ADR Destruction, 100 μM Test Compound and 0.5 μM Riboflavin: 33.5 min

Structure (SMILES): COc1ccc(C=CC(=O)O)cc1OC [3,4-Dimethoxy Cinnamic Acid]
- Half-Life of ADR Destruction, 100 μM Test Compound (UVA light): 43.0 min
- Half-Life of ADR Destruction, 100 μM Test Compound and 0.5 μM Riboflavin [1]: 5.68 min
